From US6210964A, “Avian extracellular calcium-sensing receptor” (The Brigham and Women's Hospital, Inc., priority 1998, dated 2001)
pEC50: −log10 of the molar value.

Assays:
human CaR [1] = target: T1, human CaR (Homo sapiens, UniProt P41180); assay: Cytosolic calcium (Cai) response of HEK 293 cells stably transfected with the human CaR; assay type: cell-based; parameters: expressed in transfected cells; host or cells: HEK 293; conditions: for effect on the EC50 of activation by Cao compared with 40 mM NaCl: addition of 40 mM salt
T1 sequence (P41180 20-1078): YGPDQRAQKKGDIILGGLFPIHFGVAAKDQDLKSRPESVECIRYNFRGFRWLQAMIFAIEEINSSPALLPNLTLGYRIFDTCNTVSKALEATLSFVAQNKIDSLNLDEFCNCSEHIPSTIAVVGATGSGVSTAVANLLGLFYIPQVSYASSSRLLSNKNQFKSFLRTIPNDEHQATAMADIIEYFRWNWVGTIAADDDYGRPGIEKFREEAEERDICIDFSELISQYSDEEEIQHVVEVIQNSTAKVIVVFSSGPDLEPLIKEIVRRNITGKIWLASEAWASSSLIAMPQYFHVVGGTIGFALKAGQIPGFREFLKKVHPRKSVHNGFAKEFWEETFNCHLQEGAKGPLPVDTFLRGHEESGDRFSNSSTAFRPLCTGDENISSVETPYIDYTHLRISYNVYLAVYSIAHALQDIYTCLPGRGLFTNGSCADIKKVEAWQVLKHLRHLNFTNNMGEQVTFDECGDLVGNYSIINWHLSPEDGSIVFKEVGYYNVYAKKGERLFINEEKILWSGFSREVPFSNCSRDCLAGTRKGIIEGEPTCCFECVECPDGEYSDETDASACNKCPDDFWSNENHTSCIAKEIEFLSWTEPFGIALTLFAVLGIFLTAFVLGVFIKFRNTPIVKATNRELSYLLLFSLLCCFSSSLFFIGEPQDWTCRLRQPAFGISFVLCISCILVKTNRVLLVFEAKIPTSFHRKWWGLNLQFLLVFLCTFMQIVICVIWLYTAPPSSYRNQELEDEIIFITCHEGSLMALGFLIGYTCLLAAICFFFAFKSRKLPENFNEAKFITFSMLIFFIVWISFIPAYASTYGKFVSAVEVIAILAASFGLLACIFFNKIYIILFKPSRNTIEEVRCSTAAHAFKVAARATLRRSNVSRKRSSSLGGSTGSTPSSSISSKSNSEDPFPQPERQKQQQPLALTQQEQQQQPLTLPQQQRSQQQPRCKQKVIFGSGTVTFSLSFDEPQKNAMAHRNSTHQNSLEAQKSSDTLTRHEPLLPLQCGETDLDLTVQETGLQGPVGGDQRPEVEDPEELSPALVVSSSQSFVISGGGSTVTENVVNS
Procedure: Measurement of Cai using cell population system: Coverslips with near-confluent HEK cells were loaded with fura-2/AM and placed diagonally into thermostated cuvettes equipped with a magnetic stirrer. The bath solution was stirred at 37° C., and CaR agonists were added to the desired final concentration. Excitation monochrometers was centered at 340 nm and 380 nm with emission light collected at 90° using a long-pass emission filter. The 340/380 excitation ratio of emitted light was used to calculate Cai. Both in vivo and in vitro calibrations were used to estimate Cai.

human CaR [2] = target: T1, human CaR; conditions: addition of NaCl
Procedure: Measurement of ^3 H-inositol phosphates: Cells transfected with DNA encoding human CaR were labeled with [^3 H]inositol (10 uCi/10^6 cells) overnight in medium 199 (with 10 ul/ml penicillin-streptomycin, 10 mM Hepes, pH 7.5, and 15% bovine serum), washed with solution (10 mM LiCl, 0.5 mM MgSO4, 0.5 mM CaCl2, and 2 mg/ml BSA in Eagle's MEM with Earle's salts), and then incubated with polyvalent cations for 30 minutes. Reactions were terminated with a final concentration of 10% TCA. After sedimentation of precipitated debris and removal of TCA by ether extraction, inositol phosphates in the aqueous phase were separated on Dowex anion exchange columns. The radioactive inositol monophosphate (InsP), bisphosphate (InsP2), trisphosphate (InsP3) and tetraphosphate (InsP4) were eluted stepwise with 0.2 M, 0.4 M, 0.8 M and 1.2 M formate containing 0.1 M formic acid, respectively, and quantitated using a liquid scintillation counter.

chicken CaR = target: T2, chicken CaR (Gallus gallus, UniProt A0A8V0ZLX2); assay: Expression of chicken CaR in Xenopus laevis oocytes, agonist-dependent inward Cl- currents; assay type: cell-based
T2 construct: ORF 3177 nt, nt 87-3263), T7 cRNA injected into Xenopus laevis oocytes
T2 sequence (A0A8V0ZLX2 20-1059): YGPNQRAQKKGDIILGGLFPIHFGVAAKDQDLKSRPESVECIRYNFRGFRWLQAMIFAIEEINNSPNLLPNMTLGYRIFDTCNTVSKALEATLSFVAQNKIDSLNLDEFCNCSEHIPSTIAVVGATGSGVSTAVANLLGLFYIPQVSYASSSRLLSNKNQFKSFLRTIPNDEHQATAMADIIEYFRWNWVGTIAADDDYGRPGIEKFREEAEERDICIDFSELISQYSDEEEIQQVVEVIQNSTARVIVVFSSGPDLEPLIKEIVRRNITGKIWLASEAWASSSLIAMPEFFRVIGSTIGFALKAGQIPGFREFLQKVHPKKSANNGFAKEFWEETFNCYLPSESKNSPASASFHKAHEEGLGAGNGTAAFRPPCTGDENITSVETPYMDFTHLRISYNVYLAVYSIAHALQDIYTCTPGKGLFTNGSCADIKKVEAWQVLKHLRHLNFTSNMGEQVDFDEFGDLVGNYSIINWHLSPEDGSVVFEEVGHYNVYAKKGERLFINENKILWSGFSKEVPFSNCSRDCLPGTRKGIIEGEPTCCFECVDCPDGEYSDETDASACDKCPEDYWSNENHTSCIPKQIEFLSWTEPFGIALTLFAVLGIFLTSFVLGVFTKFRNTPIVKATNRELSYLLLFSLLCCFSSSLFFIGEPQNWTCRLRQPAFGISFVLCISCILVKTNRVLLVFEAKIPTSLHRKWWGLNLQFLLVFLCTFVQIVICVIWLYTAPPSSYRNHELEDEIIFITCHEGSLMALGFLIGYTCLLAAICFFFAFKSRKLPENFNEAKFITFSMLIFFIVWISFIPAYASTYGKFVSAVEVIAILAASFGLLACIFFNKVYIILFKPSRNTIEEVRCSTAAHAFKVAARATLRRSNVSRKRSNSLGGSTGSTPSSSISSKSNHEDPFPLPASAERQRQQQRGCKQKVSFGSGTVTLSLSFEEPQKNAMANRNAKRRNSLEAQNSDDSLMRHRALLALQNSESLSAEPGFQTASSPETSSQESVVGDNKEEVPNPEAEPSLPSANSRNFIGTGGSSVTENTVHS
Excerpt: Expression of the chicken CaR in Xenopus laevis oocytes. The assay is based on injection of synthetic RNA (cRNA) for the chicken CaR into Xenopus oocytes and measurement of agonist-dependent inward currents due to CaR-mediated stimulation of Ca^2+ -activated Cl^- channels (Brown, et al., Nature 366: 575-580 (1993)). In preparing, handling and injecting the oocytes, the techniques of Hediger et al. were followed (Proc. Nat'l Acad. Sci. USA 84:2634-2637 (1987)). cRNA was transcribed from the C1D one as previously described (Brown et al. Nature 336:575-580 (1993)). In vitro transcription of cRNA was done with T7 RNA polymerase in the presence of a cap analog (m^7 -GpppG, Pharmacia Biotech, Upsala, Sweden). Defolliculated oocytes were injected with 50 nl of a 0.25 μg/μl aqueous solution of CaR cRNA or with the same volume of H2 O as a negative control. The injected oocytes were then incubated in ND96 "standard" solution containing 92 mM Na, 5 mM K, 0.5 mM CaCl2 0.5 mM MgCl and 5 mM Hepes, pH 7.5, for 3-4 days before electrophysiological study. Cl^- currents were elicited by treatment of the oocytes with increasing concentrations of Ca^2+0, Mg^2+0 or Gd^3+0 and were measured using two electrode voltage clamp at a holding potential of […], as described in detail previously (Brown et al. Nature 336:575-580 (1993); Riccardi, et al. Proc. Nat'l Acad. Sci. USA 92:131-135 (1995)).

[3] = oocytes injected with chicken CaR cRNA, Cl- currents

## [Cl-].[Na+] [NaCl, sodium chloride]
Human CaR [1]; NaCl elevated by 20 to 60 mM
  effect on Cai response to 2.5 mM Cao: attenuated
Human CaR [1]; addition of NaCl in 20 mM increments
  effect on threshold and EC50 of Cao activation: shift to the right
Human CaR [2]
  effect on Ca0-stimulated inositol phosphate accumulation: attenuated

## C[N+](C)(C)CCO.[Cl-] [choline chloride]
Human CaR [1]
  effect on the EC50 of activation by Cao compared with 40 mM NaCl: same effect

## [Gd+3] [Gd^3+o]
Chicken CaR; FIG. 5
  magnitude of inward current responses relative to Ca2+-evoked responses: almost an order of magnitude greater
Chicken CaR; [3]
  half-maximal activation: micromolar range

## [Ca+2] [Ca^2+o]
Human CaR [1]; no alteration in NaCl
  threshold for cell activation: about 1.5 mM
Human CaR [1]; no alteration in NaCl, read-out: EC50 for activation of the CaR
  pEC50: ~2.46
Human CaR [1]; per 10 mM change in ionic strength
  shift in the EC50 per 10 mM change in ionic strength: approximately 0.2 mM
Chicken CaR; [3]
  effective concentration range: millimolar range

## [Mg+2] [Mg^2+o]
Chicken CaR; [3]
  effective concentration range: millimolar range

## [Cl-].[K+] [potassium chloride]
Human CaR [1]
  effect on the EC50 of activation by Cao compared with 40 mM NaCl: same effect
